ChEMBL document CHEMBL4715864, “Discovery of 2-(5-(quinolin-6-yl)-1,3,4-oxadiazol-2-yl)acetamide derivatives as novel PI3Kα inhibitors via docking-based virtual screening” (Bioorg Med Chem, 2021)

Tests used:
[1] = target: T1, Phosphatidylinositol 4,5-bisphosphate 3-kinase catalytic subunit alpha isoform (Homo sapiens, UniProt P42336); experiment: Inhibition of PI3Kalpha (unknown origin) using PIP2 as substrate measured after 1 hr by ADP-glo plus luminescence assay
[2] = target: T1, Phosphatidylinositol 4,5-bisphosphate 3-kinase catalytic subunit alpha isoform; experiment: Inhibition of PI3Kalpha (unknown origin) assessed as inhibition rate using PIP2 as substrate at 10 uM measured after 1 hr by ADP-glo plus luminescence assay
[3] = target: T2, Phosphatidylinositol 4,5-bisphosphate 3-kinase catalytic subunit delta isoform (Homo sapiens, UniProt O00329); experiment: Inhibition of PI3Kdelta (unknown origin) using PIP2 as substrate measured after 1 hr by ADP-glo plus luminescence assay
T2 sequence (O00329 whole entry): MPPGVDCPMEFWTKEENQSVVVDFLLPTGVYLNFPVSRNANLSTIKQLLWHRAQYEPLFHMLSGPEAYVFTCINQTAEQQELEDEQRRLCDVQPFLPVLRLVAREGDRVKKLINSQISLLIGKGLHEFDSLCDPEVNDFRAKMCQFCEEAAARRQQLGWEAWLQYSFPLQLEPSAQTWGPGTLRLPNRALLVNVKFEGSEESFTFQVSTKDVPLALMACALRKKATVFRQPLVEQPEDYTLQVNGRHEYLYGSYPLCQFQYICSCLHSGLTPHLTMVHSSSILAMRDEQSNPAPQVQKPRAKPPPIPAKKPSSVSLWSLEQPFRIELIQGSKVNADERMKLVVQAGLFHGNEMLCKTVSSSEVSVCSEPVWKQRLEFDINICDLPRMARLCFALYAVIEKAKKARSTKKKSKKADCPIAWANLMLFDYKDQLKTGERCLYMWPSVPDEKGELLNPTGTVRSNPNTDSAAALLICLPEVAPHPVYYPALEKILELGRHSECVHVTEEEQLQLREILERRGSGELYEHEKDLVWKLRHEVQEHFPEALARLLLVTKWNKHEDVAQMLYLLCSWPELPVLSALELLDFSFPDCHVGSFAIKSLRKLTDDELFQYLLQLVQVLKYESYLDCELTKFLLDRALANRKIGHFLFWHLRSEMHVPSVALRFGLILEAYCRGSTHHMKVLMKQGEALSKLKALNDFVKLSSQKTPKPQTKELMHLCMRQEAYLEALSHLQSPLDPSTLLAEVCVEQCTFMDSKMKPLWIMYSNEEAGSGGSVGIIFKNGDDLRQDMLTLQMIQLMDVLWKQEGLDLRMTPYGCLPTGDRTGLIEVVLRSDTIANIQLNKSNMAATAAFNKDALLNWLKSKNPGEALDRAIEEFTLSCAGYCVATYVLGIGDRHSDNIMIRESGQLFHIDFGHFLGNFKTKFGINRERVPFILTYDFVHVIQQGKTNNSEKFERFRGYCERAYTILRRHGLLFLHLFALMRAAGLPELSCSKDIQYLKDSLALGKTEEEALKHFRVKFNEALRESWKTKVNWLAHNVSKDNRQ

[4] = target: Phosphatidylinositol 4,5-bisphosphate 3-kinase catalytic subunit gamma isoform (Homo sapiens, UniProt P48736); experiment: Inhibition of PI3Kgamma (unknown origin) using PIP2 as substrate measured after 1 hr by ADP-glo plus luminescence assay
[5] = species: Homo sapiens; experiment: Selectivity ratio of IC50 for PI3Kgamma (unknown origin) to IC50 for PI3Kalpha (unknown origin)
[6] = target: Phosphatidylinositol 4,5-bisphosphate 3-kinase catalytic subunit beta isoform (Homo sapiens, UniProt P42338); experiment: Inhibition of PI3Kbeta (unknown origin) using PIP2 as substrate measured after 1 hr by ADP-glo plus luminescence assay
Sequence of Phosphatidylinositol 4,5-bisphosphate 3-kinase catalytic subunit beta isoform (P42338 whole entry, canonical isoform): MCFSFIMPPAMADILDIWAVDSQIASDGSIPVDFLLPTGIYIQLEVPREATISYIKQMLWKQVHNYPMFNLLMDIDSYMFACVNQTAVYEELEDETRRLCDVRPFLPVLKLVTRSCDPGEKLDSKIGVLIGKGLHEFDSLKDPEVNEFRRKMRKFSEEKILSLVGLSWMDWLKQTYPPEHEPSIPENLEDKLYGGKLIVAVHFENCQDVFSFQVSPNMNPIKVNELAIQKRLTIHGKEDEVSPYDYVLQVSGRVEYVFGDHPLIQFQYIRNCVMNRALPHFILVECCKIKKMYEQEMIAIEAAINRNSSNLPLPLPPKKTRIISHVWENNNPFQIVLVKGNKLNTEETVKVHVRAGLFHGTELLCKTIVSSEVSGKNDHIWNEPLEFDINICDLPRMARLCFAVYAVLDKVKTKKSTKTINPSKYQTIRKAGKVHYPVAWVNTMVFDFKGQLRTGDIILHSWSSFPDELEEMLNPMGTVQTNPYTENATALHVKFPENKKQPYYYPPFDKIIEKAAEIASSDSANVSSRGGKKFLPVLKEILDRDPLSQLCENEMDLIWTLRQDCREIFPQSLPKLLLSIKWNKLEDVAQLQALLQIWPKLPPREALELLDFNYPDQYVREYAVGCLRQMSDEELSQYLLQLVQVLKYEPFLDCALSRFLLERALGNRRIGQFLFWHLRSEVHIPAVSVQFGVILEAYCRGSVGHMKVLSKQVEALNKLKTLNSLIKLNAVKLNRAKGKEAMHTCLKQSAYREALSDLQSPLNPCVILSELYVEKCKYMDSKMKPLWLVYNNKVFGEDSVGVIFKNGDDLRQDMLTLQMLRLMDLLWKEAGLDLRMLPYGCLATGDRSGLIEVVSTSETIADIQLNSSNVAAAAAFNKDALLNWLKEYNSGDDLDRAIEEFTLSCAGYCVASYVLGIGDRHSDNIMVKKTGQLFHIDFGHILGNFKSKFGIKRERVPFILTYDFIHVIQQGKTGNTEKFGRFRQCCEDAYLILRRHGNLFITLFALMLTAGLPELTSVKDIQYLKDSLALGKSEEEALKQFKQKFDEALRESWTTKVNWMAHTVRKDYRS

T1 sequence (P42336 whole entry, canonical isoform): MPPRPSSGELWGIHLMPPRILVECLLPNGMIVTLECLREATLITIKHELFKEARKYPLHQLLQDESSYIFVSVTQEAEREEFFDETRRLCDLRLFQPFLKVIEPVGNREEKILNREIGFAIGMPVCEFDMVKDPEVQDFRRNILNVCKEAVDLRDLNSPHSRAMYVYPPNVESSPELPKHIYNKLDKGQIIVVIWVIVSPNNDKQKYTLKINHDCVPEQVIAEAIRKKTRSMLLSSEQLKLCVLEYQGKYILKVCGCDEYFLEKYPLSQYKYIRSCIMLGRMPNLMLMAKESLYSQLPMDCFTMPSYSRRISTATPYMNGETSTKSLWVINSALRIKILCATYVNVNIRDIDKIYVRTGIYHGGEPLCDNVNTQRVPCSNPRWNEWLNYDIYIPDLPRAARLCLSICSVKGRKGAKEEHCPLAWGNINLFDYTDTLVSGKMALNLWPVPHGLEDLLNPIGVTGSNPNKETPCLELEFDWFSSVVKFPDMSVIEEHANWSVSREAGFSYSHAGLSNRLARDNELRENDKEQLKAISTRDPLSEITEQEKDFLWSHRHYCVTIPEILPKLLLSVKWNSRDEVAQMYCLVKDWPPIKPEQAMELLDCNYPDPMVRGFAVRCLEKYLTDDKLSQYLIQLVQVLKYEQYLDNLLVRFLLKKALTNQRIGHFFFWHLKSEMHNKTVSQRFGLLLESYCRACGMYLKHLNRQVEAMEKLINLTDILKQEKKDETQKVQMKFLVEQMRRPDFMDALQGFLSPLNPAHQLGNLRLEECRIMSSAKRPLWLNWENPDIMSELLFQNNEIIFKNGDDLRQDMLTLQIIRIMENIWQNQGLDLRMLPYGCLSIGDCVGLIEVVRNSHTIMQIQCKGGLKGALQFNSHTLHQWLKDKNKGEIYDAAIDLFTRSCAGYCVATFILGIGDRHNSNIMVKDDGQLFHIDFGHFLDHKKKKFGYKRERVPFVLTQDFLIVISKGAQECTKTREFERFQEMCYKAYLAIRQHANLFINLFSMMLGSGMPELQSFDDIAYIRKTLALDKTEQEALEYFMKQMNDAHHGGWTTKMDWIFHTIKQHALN
Sequence of Phosphatidylinositol 4,5-bisphosphate 3-kinase catalytic subunit gamma isoform (P48736 whole entry, canonical isoform): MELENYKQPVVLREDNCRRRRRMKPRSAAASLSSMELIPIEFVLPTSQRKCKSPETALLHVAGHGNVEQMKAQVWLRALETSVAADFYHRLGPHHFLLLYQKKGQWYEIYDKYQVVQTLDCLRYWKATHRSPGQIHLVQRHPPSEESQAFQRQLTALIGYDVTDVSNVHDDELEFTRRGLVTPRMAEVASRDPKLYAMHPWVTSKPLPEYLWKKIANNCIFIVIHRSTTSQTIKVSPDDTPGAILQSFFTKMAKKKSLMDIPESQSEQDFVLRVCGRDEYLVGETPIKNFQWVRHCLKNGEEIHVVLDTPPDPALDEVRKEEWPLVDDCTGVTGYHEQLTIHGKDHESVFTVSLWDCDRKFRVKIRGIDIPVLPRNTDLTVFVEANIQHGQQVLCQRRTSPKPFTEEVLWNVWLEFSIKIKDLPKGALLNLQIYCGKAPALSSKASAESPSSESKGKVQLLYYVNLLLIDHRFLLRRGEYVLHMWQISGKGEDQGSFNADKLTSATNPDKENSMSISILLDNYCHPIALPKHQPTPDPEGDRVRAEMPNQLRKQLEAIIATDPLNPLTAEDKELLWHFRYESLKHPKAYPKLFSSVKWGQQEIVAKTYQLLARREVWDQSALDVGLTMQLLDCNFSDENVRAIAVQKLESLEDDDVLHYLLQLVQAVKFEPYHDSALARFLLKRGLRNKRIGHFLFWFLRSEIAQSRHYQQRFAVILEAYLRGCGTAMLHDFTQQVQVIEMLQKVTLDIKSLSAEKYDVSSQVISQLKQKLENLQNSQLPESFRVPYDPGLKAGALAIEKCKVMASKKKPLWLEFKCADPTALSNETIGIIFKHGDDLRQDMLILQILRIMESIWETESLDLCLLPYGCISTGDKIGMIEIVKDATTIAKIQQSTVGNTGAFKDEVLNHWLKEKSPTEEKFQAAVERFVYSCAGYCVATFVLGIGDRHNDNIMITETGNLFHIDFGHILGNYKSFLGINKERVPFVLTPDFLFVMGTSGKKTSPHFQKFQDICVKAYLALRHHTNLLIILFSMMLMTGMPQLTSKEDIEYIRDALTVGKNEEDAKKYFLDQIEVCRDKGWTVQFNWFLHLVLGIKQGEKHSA

SMILES	IC50 [1] [µM]	other results
O=C(Cc1nnc(-c2ccc3ncccc3c2)o1)Nc1cccc(C(F)(F)F)c1	> 200	
O=C(Cc1nnc(-c2ccc3ncccc3c2)o1)NCc1ccc(F)cc1Cl	15.6	inhibition [2]: 55.5%
O=C(Cc1nnc(-c2ccc3ncccc3c2)o1)N1CCN(c2ccccc2)CC1	> 200	
O=C(Cc1nnc(-c2ccc3ncccc3c2)o1)Nc1ccc(OC(F)(F)F)cc1	> 200	
O=C(Cc1nnc(-c2ccc3ncccc3c2)o1)NCCc1ccccc1	29.2	inhibition [2]: 73.8%
O=C(Cc1nnc(-c2ccccn2)o1)NCc1ccc(F)cc1Cl	> 200	
COc1ccccc1CNC(=O)Cc1nnc(-c2ccc3ncccc3c2)o1	18.3	
O=C(Cc1nnc(-c2ccc3ncccc3c2)o1)NCCc1ccc(Cl)cc1	6.6	IC50 [3]: 16.6 µM; IC50 [4]: 9.8 µM; IC50 [6]: 2.6 µM

More lines, main results first:

IC50 [1] [µM]	SMILES	other results
> 200	N#Cc1cc(NC(=O)Cc2nnc(-c3ccc4ncccc4c3)o2)ccc1F	
7.6	COc1ccc(CNC(=O)Cc2nnc(-c3ccc4ncccc4c3)o2)cc1OC	IC50 [3]: 14.2 µM; IC50 [4]: 152 µM; Ratio IC50 [5]: 20; IC50 [6]: 4.1 µM
> 200	O=C(Cc1nnc(-c2ccc3c(c2)OCO3)o1)NCc1ccc(F)cc1	
17	CC(C)NC(=O)CSc1nc(-c2ccc3c(c2)OCO3)nc2cc(=O)[nH]n12	inhibition [2]: 71.9%
> 200	COc1ccc(NC(=O)Cc2nnc(-c3ccc4ncccc4c3)o2)cc1OC	
